Source: the supplement of paper PMC7661543
± gives the standard deviation of the averaged measurements.

Assays:
Experiment in all cases: relative cell number vs DMSO control (72 h) (% of DMSO); higher = less growth inhibition (more cells)
Settings in all cases: sgRNA knockout: sgNT
SKBR3 = tested on: SKBR3
Protocol: (§1)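 QMAP-Seq: a pool of 5 breast cancer cell lines (ZR-75-1, SKBR3, HCC-38, MDA-MB-231, BT-20), each carrying 12 doxycycline-inducible Cas9 sgRNA perturbations (11 knockouts plus non-targeting sgNT), was treated with compounds for 72 h at four 10-fold doses (10 nM-10 uM or 1 nM-1 uM range). Barcodes were amplified and sequenced, and cell number was interpolated from 293T spike-in standard curves. The result is expressed as % of the median of DMSO wells. Two biological replicates.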

ZR-75-1 = tested on: ZR-75-1
Protocol: as §1

BT-20 = tested on: BT-20
Protocol: as §1

MDA-MB-231 = tested on: MDA-MB-231
Protocol: as §1

HCC-38 = tested on: HCC-38
Protocol: as §1

SMILES	relative cell number (SKBR3; 10 nM)	relative cell number (SKBR3; 100 nM)	relative cell number (SKBR3; 1000 nM)	relative cell number (SKBR3; 10000 nM)	relative cell number (ZR-75-1; 10 nM)	relative cell number (ZR-75-1; 100 nM)	relative cell number (ZR-75-1; 1000 nM)	relative cell number (ZR-75-1; 10000 nM)	relative cell number (BT-20; 10 nM)	relative cell number (BT-20; 100 nM)	relative cell number (BT-20; 1000 nM)	relative cell number (BT-20; 10000 nM)	relative cell number (MDA-MB-231; 10 nM)	relative cell number (MDA-MB-231; 100 nM)	relative cell number (MDA-MB-231; 1000 nM)	relative cell number (MDA-MB-231; 10000 nM)	relative cell number (HCC-38; 10 nM)	relative cell number (HCC-38; 100 nM)	relative cell number (HCC-38; 1000 nM)	relative cell number (HCC-38; 10000 nM)
Cc1cn(-c2cc(NC(=O)c3ccc(C)c(Nc4nccc(-c5cccnc5)n4)c3)cc(C(F)(F)F)c2)cn1 [Nilotinib]	79.5 ± 24	88.7 ± 0.9	98.3 ± 25	13.8 ± 12	75.2 ± 1.9	94.4 ± 29	107 ± 2.8	35.1 ± 20	99.6 ± 18	87.1 ± 14	94.2 ± 22	63.1 ± 6.3	80.9 ± 6.4	118 ± 19	88.1 ± 1.5	63.5 ± 28	93.4 ± 2.5	102 ± 16	98.8 ± 11	93.7 ± 30
O=[N+]([O-])c1ccc(O)c2ncccc12 [Nitroxoline]	82.9 ± 23	91.1 ± 3.5	43.59 ± 0.14	40 ± 6.6	86.7 ± 6.9	94.1 ± 17	97.4 ± 51	33.4 ± 19	93.1 ± 19	87.9 ± 43	114 ± 13	56.1 ± 6.1	54.2 ± 9.2	103 ± 22	88.3 ± 10	37.7 ± 9.7	86.5 ± 3.6	88.83 ± 0.36	107 ± 14	45.9 ± 0.87
COc1cccc2cc(-c3nc([C@H]4CC[C@H](C(=O)O)CC4)n4ncnc(N)c34)[nH]c12 [OSI027]	87.6 ± 25	116 ± 31	69.9 ± 14	27.8 ± 6.2	81.1 ± 21	94.9 ± 17	63.4 ± 24	25.4 ± 2	85.8 ± 7.3	113 ± 1.8	83.39 ± 0.24	52.5 ± 14	97.4 ± 8.9	128 ± 27	83.4 ± 29	58.9 ± 11	108 ± 20	107 ± 29	84.2 ± 1.9	31.2 ± 0.23
O=C(c1cc(Cc2n[nH]c(=O)c3ccccc23)ccc1F)N1CCN(C(=O)C2CC2)CC1 [Olaparib]	87.7 ± 1.6	111 ± 9.3	85.4 ± 11	48.7 ± 9.5	78.3 ± 13	89.3 ± 28	64.1 ± 3.7	91.3 ± 17	103 ± 6	85.9 ± 12	73.2 ± 6.7	94 ± 7.7	87.3 ± 12	83.4 ± 1.6	93.9 ± 22	93.2 ± 31	93.4 ± 4.8	102 ± 2.2	88.6 ± 1.6	62.5 ± 0.89
Cc1ncc([N+](=O)[O-])n1CC(O)CCl (stereo not given) [Ornidazole]	70.1 ± 3.7	102 ± 12	91.3 ± 26	104 ± 29	95 ± 18	76.4 ± 24	121 ± 71	84.3 ± 25	103 ± 7.7	81.8 ± 1.3	96.5 ± 6.5	104 ± 17	103.6 ± 0.42	108 ± 7.5	74.3 ± 12	138 ± 14	84.2 ± 8.7	88.1 ± 7.5	114 ± 19	97.7 ± 13
C=CCc1cccc(/C=N/NC(=O)CN2CCN(Cc3ccccc3)CC2)c1O [PAC1]	68 ± 7	88.5 ± 14	68 ± 27	32.5 ± 11	99.5 ± 9.9	46.5 ± 24	89.6 ± 8.7	12.5 ± 5.5	92 ± 13	84.1 ± 14	74.6 ± 4.9	45.7 ± 18	104 ± 32	134.14 ± 0.028	109 ± 32	31.7 ± 4.5	104 ± 7.8	103 ± 7	90 ± 11	33.9 ± 2.5
Oc1cccc(-c2nc(N3CCOCC3)c3oc4ncccc4c3n2)c1 [PI103]	145 ± 47	134 ± 2.6	62.6 ± 31	33.1 ± 2.4	121 ± 13	129 ± 16	58 ± 21	18.9 ± 2.2	120 ± 44	124 ± 37	68.7 ± 11	49.7 ± 11	143 ± 15	126 ± 41	118 ± 15	37.3 ± 11	118 ± 1.5	111 ± 1.1	85.3 ± 4.5	31.4 ± 2.4
CC(=O)Nc1nc(C)c(-c2ccc(Cl)c(S(=O)(=O)NCCO)c2)s1 [PIK93]	112 ± 59	66.5 ± 30	94.4 ± 41	51.9 ± 25	128 ± 19	99.2 ± 33	61.1 ± 14	63.8 ± 24	106 ± 8.5	104 ± 2.3	98.71 ± 0.17	74 ± 3.9	84.5 ± 40	98.2 ± 31	88.6 ± 11	37.5 ± 1.5	115 ± 21	118 ± 22	80.4 ± 7.5	62.7 ± 7.3
CCCS(=O)(=O)Nc1ccc(F)c(C(=O)c2c[nH]c3ncc(Cl)cc23)c1F [PLX4720]	109 ± 24	105 ± 22	93.3 ± 14	94.8 ± 13	138 ± 42	96.7 ± 15	123 ± 22	173 ± 42	104 ± 12	75.4 ± 11	98.4 ± 7.7	121 ± 32	129.8 ± 0.69	136 ± 62	70.5 ± 9.8	98 ± 3.6	103 ± 13	109 ± 15	110 ± 17	98.3 ± 14
CCC(C)SSc1ncc[nH]1 (stereo not given) [PX12]	95.4 ± 14	95.5 ± 65	88.8 ± 31	57.7 ± 24	116 ± 19	102 ± 48	69.5 ± 9.5	54.7 ± 25	116 ± 7.8	132 ± 1.4	100 ± 4.2	99.6 ± 31	104 ± 30	128 ± 20	99.5 ± 25	54.6 ± 0.63	113 ± 8.1	101 ± 15	93.6 ± 8.6	84.9 ± 8.4
CCOC(=O)c1ccc(N2NC(=O)C(=Cc3ccc([N+](=O)[O-])o3)C2=O)cc1 [PYR41]	106 ± 8.4	83.5 ± 17	98.3 ± 18	64.5 ± 46	125 ± 29	72.9 ± 28	100 ± 1.6	97.4 ± 40	93.7 ± 24	101 ± 13	103 ± 17	102.7 ± 0.59	133 ± 62	106 ± 11	87.6 ± 62	111 ± 6.8	85.8 ± 4.7	89.9 ± 13	101.7 ± 0.8	84.8 ± 5.1
CC(=O)O[C@H]1C(=O)[C@@]2(C)[C@H]([C@H](OC(=O)c3ccccc3)[C@]3(O)C[C@H](OC(=O)[C@H](O)[C@@H](NC(=O)c4ccccc4)c4ccccc4)C(C)=C1C3(C)C)[C@]1(OC(C)=O)CO[C@@H]1C[C@@H]2O [Paclitaxel]	10.2 ± 2.9	6.23 ± 1.4	11.1 ± 1.4	16.4 ± 9.7	28.3 ± 2	18.6 ± 18	21.6 ± 3.9	43.8 ± 17	57.9 ± 10	18.7 ± 15	25.7 ± 9.2	47.3 ± 15	28.8 ± 15	15.6 ± 2.2	21.4 ± 7.8	29.9 ± 10	31.4 ± 5.5	14.4 ± 5.1	18 ± 2.9	25.4 ± 3.6
CC(=O)c1c(C)c2cnc(Nc3ccc(N4CCNCC4)cn3)nc2n(C2CCCC2)c1=O [Palbociclib]	90.3 ± 0.5	52.1 ± 5.9	51.3 ± 4.3	43.8 ± 16	66.5 ± 20	36.6 ± 2.5	30 ± 3.5	29.9 ± 3	87.4 ± 11	41.8 ± 13	45.8 ± 1.1	53.889 ± 0.041	97.3 ± 57	30.6 ± 16	22.5 ± 2.1	22.1 ± 6	74.3 ± 13	37.4 ± 10	44.4 ± 2	42.2 ± 0.9
C=C1C(=O)O[C@H]2[C@H]1CC/C(C)=C/CC[C@@]1(C)O[C@@H]21 [Parthenolide]	98.3 ± 24	122 ± 28	96.6 ± 16	98.9 ± 4.2	94.9 ± 35	128 ± 21	71.5 ± 53	122 ± 3.6	108 ± 14	101 ± 3.3	93.2 ± 14	96.5 ± 20	130 ± 77	123 ± 43	126 ± 11	124.5 ± 0.77	114 ± 6.1	92.6 ± 2	98.6 ± 16	113 ± 13
Cc1ccc(Nc2nccc(N(C)c3ccc4c(C)n(C)nc4c3)n2)cc1S(N)(=O)=O [Pazopanib]	96.1 ± 6.7	48.9 ± 20	93.1 ± 34	49.1 ± 5.4	88.8 ± 3	52.6 ± 23	60.8 ± 12	30.5 ± 1.7	102 ± 15	86.8 ± 3.6	110 ± 3.6	73.8 ± 16	97 ± 39	90.5 ± 16	88.68 ± 0.85	66.1 ± 19	95.4 ± 1.7	95.2 ± 1.4	95 ± 15	56.8 ± 1.5
O=C(CCc1ccc(O)cc1)c1c(O)cc(O)cc1O [Phloretin]	76.3 ± 4.5	76.5 ± 1	100 ± 1.3	90.5 ± 3.9	91.1 ± 42	100 ± 55	74 ± 11	112 ± 13	102 ± 36	105 ± 16	96.7 ± 8.2	107 ± 15	83.2 ± 2.8	103 ± 20	127 ± 16	106.6 ± 0.71	104 ± 10	105 ± 7	101 ± 13	113 ± 11
Cc1ccc(C(=O)Cn2c3c(sc2=N)CCCC3)cc1 [PifithrinAlpha]	133 ± 10	84.2 ± 16	85.6 ± 2.5	67.1 ± 6.8	121 ± 13	90.9 ± 20	61.5 ± 23	37.7 ± 11	135 ± 2.2	95.61 ± 0.61	103 ± 1.8	77.5 ± 1.6	114 ± 41	85.3 ± 57	94.3 ± 30	57.2 ± 3.8	91.7 ± 2.4	91.4 ± 4.6	83.2 ± 14	90.2 ± 8.3
c1ccc2c(Oc3nc(Nc4ccc(N5CCOCC5)cc4)c4ncn(C5CCCCC5)c4n3)cccc2c1 [Purmorphamine]	96.9 ± 34	124 ± 43	75.9 ± 29	51.1 ± 11	97.6 ± 49	84.6 ± 39	92.7 ± 11	52.3 ± 1.9	84.2 ± 13	99.65 ± 0.55	85.43 ± 0.29	79.3 ± 11	95.7 ± 9.6	75.6 ± 12	97 ± 66	52 ± 8.8	99.2 ± 3.6	95.6 ± 7.1	90.2 ± 1.9	71.8 ± 6.4
O=C(O)C(Cc1c[nH]c2ccccc12)N1C(=O)c2ccccc2C1=O (stereo not given) [RG108]	97.1 ± 11	64.7 ± 21	81 ± 16	73.2 ± 5.8	94.8 ± 3.9	76.2 ± 6.3	98.5 ± 2.5	71.4 ± 41	82.3 ± 16	70.3 ± 4.6	102 ± 4.9	102 ± 14	96.8 ± 28	96.5 ± 4	80.5 ± 17	79.7 ± 30	87.6 ± 8	88.2 ± 2.6	83.03 ± 0.26	97.2 ± 1.7
CNC(=O)c1cc(Oc2ccc(NC(=O)Nc3ccc(Cl)c(C(F)(F)F)c3)c(F)c2)ccn1 [Regorafenib]	84.4 ± 8.2	98.8 ± 11	101 ± 16	38.2 ± 5	81.3 ± 52	68.8 ± 21	98.2 ± 40	22.1 ± 1.5	94.2 ± 7.3	94.9 ± 19	116 ± 46	42.7 ± 9.8	102 ± 13	114.3 ± 0.95	94.3 ± 26	32.7 ± 7.6	105.7 ± 0.71	113 ± 7.7	110 ± 2.3	61.9 ± 11
